Experimental data from US20260242824A1, “ONCOLYTIC VIRUSES TO TREAT BRAIN CANCER” (priority 2023, published 2026).

Legend:
STAT3 = details: 2 μM in dimethyl sulfoxide; reported in ref [40]; cited from earlier work
[1] = tested on: Tnfsf10 expression in astrocytes; assay: Tnfsf10 mRNA (qPCR) in stimulated primary mouse astrocytes; format: cell-based
Method: Isolation, culture, and stimulation of primary mouse astrocytes. Primary murine astrocytes were isolated from neonatal brains as previously described. Briefly, wild-type mouse pups aged 1-3 days were cryoanesthetized and decapitated. Whole brains were extracted, and 2-3 brains pooled per culture. After centrifugation for 5 min at 500×g, tissues were resuspended in 5 mL pre-warmed 0.25% Trypsin-EDTA (Thermo Fisher Scientific, 25200-072) and incubated at 37° C. for 10 min, followed by addition of culture medium to stop the dissociation reaction, and mechanical disaggregation by strong pipetting. The suspension was then filtered through a 70 μm nylon strainer and centrifuged 5 min at 500×g. Finally, the suspension was seeded onto T75 flasks (Falcon, 353136) that were coated at room temperature for 10 min with poly-L-lysine (Sigma-Aldrich, P4707). Mixed glial cultures were grown for at least 10 days prior to enrichment of astrocytes per the following method. […]
For quantitative analysis of gene transcription from cultured cells cellular RNA was extracted by use of RNeasy Kit (Qiagen, 74004). […] Quantitative measurement of gene expression was performed by qPCR using Taqman Fast Universal PCR Master Mix (Life Technologies, 4367846), MicroAmp Optical 384 well plates (Thermo Fisher Scientific, 43-098-49) and a ViiA 7 Real-Time PCR System (Applied Biosciences). […]

Molecule	effectiveness and cytotoxicity at the concentration used (STAT3)	TCM-induced expression of Tnfsf10 transcripts upon STAT inhibition ([1]; GL261 TCM-stimulated astrocytes, inhibitor 2 μM, vs vehicle)	Tnfsf10 expression upon recombinant murine IL-11 alone ([1]; astrocytes, 50 ng/ml, levels comparable to GL261 TCM, vs control medium)
O=C(Nc1ccc([N+](=O)[O-])cc1Cl)c1cc(Cl)ccc1O [BAY2353, Niclosamide]	effective but not cytotoxic	fully abrogated	
Recombinant murine IL-11: recombinant murine IL-11 used to stimulate astrocytes at 50 ng/ml (protein, UniProt P47873 22-199, looked up) Interleukin-11: PGPPAGSPRVSSDPRADLDSAVLLTRSLLADTRQLAAQMRDKFPADGDHSLDSLPTLAMSAGTLGSLQLPGVLTRLRVDLMSYLRHVQWLRRAGGPSLKTLEPELGALQARLERLLRRLQLLMSRLALPQAAPDQPVIPLGPPASAWGSIRAAHAILGGLHLTLDWAVRGLLLLKTRL			sufficient to induce Tnfsf10 expression
